One experiment deals with DU145 prostaspheres. The experiment can be described thus: Treatment of pre-formed CSC-enriched DU145 prostaspheres. Format: cell-based. The conditions noted are these: 40 ng/ml, 48 hrs. As for the experimental part:
(A) CSC enriched prostaspheres were formed by maintaining DU145 cells in non-adherent culture supplemented with serum replacement medium for 14 days. The prostaspheres were then treated with either vehicle, γ-T3 (10, 20 μg/ml) or Docetaxel (Doc, 40 ng/ml) for 48 hrs. Spheroids were counted under microscope before and after treatment. Results were presented as mean % change in spheroid number to control±s.d. Note that spheroids were highly sensitive to γ-T3 treatment but resistant to high dose of Docetaxel. (B) Images of prostaspheres after 48 hrs treatment with vehicle, 40 ng/ml of Docetaxel and 10 μg/ml of γ-T3.
5.1.7 Spheroid formation assay—Spheroid formation assay was performed with a protocol modified from previous study (Folkins C, p3560). Briefly, cells were first trypsinized, washed with 1× PBS and resuspended in DMEM F12 medium. Two hundred cells were added into each well of a 24-well-plate pre-coated with polyHEMA (Sigma, St. Louis, Mo.). Cells will be grown in DMEM/F12 mem (Invitrogen, Carlsbad, Calif.) supplemented with 4 μg/mL insulin (Sigma, St. Louis, Mo.), B27 (Invitrogen, Carlsbad, Calif.), 20 ng/mL EGF (Sigma, St. Louis, Mo.), and 20 ng/mL basic FGF (Invitrogen, Carlsbad, Calif.). Fresh medium with the above supplements was added every day. γ-T3 was added at indicated time points and the number of spheroids was counted at day 14 of the assay or at the end of the treatment. Each experiment was repeated in triplicates and each data point represented the mean and standard derivation.

A further experiment relates to DU145. The conditions noted are these: cited from earlier work.
Experiment [1] has as its system human estrogen-independent BCa cells (MDA-MB-231). The experiment can be described thus: MTT cell viability, MDA-MB-231 cells. Format: cell-based. The following applies: MDA-MB-231, 24 hours. The procedure: 1.1.3 Cell viability study and time course experiment—For cell viability study, 1×10^4 cells resuspended in 100 μl medium were plated into each well of a 96-well plate. The cells were then treated with different concentrations of the vitamin-E isomers for 24 hrs. After the treatment, 20 μl of 3-(4,5-Dimethyl thiazol-2-yl)-2,5-diphenyl tetrazolium bromide (MTT) solution was added into each well and the cells were incubated at 37° C. for 2 hrs. The formazan crystals were then re-suspended in 200 μl of DMSO and the intensity at 595 nm was measured. For JNK inhibitor study, cells were pre-treated with 20 μM of SP600125 for 8 hrs prior to the addition of vitamin-E isomers. For time course study, 5×10^3 cells were treated with different concentrations of the vitamin-E isomers and were subjected to MTT cell proliferation assay at the indicated time point. If IC50 for the isomer is >100 μM, 100 μM will be used as treatment dosage.
3.1.4 Cell viability and time course experiments were carried out as described above under item 1.1.3 with the following difference. For inhibitors study, cells were pre-treated with inhibitors (U0126, PD98059 and APN) at targeted dosage for 8 hrs prior to the addition of vitamin-E isomers.

Another experiment relates to MDA-MB-231 cells. The experiment in a line: Flow cytometry, western blotting and RT-PCR, MDA-MB-231 cells. Format: cell-based, human. The conditions noted are these: MDA-MB-231. The procedure:
1.1.3 Flow cytometry—Cell cycle distribution was examined using flow cytometry. Briefly, cells were harvested by trypsinization, fixed in 70% ethanol at 4° C. overnight, and then resuspended in PBS. After incubation at 4° C. for overnight, 2×10^6 cells were incubated with in 20 μg/ml propidium iodide (PI) and 2 mg RNaseA for 15 minutes at 37° C. Cells were then examined by BD SLRII cytometer and the results were analyzed using ModFit software (Becton Dickinson, Mountain View, Calif.). Data were expressed as the percentage of cell cycle distribution in the entire population.
1.1.5 Western blotting—Detailed protocols have been described previously and are known in the art. Briefly, cell lysates were prepared by suspending cell pellets in lysis buffer [50 mmol/l Tris-HCl (pH 8.0), 150 mmol/l NaCl, 1% NP40, 0.5% deoxycholate, 0.1% SDS, 1 mg/ml aprotinin, 1 μg/ml leupeptin and 1 mmol/l phenylmethylsulfonyl fluoride]. For nuclear protein extraction, NucBuster™ protein extraction kit was used. Protein concentration was measured using the DC Protein Assay kit (Bio-Rad, Hercules, Calif.). Equal amount of protein (30 μg) was loaded onto a 10% SDS polyacrylamide gel for electrophoresis and then transferred onto a polyvinylidene difluoride membrane (Amersham, Piscataway, N.J.). The membrane was then incubated with primary antibodies for 1 hr at room temperature against E-cadherin (BD Biosciences, Bedford, Mass.), α-catenin, β-catenin, γ-catenin, Id-1, Id-3, EGFR, phosphor-c-jun, phosphor-ATF2, cleaved PARP, vimentin, α-smooth muscle actin, twist (Santa Cruz Biotechnology, Calif.), phosphor-IkB-alpha (Ser32/36), phosphor-IKK alpha (Seri 80)/IKK beta (Ser181), phosphor-SAPK/JNK (Thr183/Tyr185) G9, SAPK/JNK, NF-kB p65 (5A5) (Cell Signaling Technology Inc, Beverly, Mass.), Snail (Abcam). After incubation with appropriate secondary antibodies, signals were visualized by ECL western blotting system (Amersham, Piscataway, N.J.). Expression of β-actin and histone H1 were assessed as an internal loading control for total cell lysate and nuclear protein lysate respectively.
3.1.5 DNA fragmentation assay—After 24 hrs incubation with gamma-T3, 3×10^6 MDA-MB-231 cells were harvested and suspended in lysis buffer [5 mM Tris-HCl (pH 8.0), 20 mM EDTA, and 0.5% (v/v) Triton X-100] for 60 min on ice. Samples were centrifuged, the supernatants were removed and incubated with 5 μl RNase A (10 μg/ml) at 37° C. for 40 min, and 1 ml of anhydrous ethanol was added. Tubes were placed at […] for 20 min and then centrifuged to pellet the DNA. DNA samples were analyzed by electrophoresis at 80 V for 3 hrs on a 2% agarose gel containing ethidium bromide (0.2 μg/ml) and visualized under UV illumination.
3.1.6 Terminal deoxynucleotidyltransferase-mediated deoxyuridine triphosphate nick end-labelling (TUNEL) assay—DNA strand breaks during apoptosis was examined using in situ cell death detection reagent (Roche Applied Science). Briefly, 1×10^6 cells were pretreated with gamma-T3 for 24 hrs. Thereafter, cells were incubated with reaction mixture for 60 min at 37° C. Stained cells were analyzed and captured by fluorescence microscope on glass slide.
3.1.7 Flow cytometry was carried out as described above under item 1.1.3. Matrigel-invasion assay was carried out as described above under item 1.1.4. Western blotting was carried out as described above under item 1.1.5.
3.1.8 Id-1 RT-PCR—Total RNA was isolated using Trizol® reagent according to the manufacturer's protocol (Invitrogen). cDNA was synthesized using the SuperScript™ First Strand Synthesis System (Invitrogen) and was then amplified by PCR with Id-1 specific primers (forward primer, Id1-S, 5′-CTCCAGCACGTCATCGACTA-3′ and reverse primer, Id1-AS,5′-AAC GCA TGC CGC CTC-3′). PCR cycling protocol was as follows: 30 cycles of 10 min at 95° C., 30 s at 95° C., 30 s at 55° C., 1 min at 72° C. and 10 min at 72° C. Glyceraldehyde 3-phosphate dehydrogenase was amplified as an internal control. […]

The subject of experiment [2] is human androgen-dependent PCa cells (LNCaP). The experiment in a line: MTT cell viability, LNCaP cells. Format: cell-based. As for the experimental part:
2.1.3 Cell viability study and time course experiment—For cell viability study, 5×10^3 cells resuspended in 100 μl medium were plated into each well of a 96-well plate. The cells were then treated with different concentrations (20, 40, 60, 80, 100 μM) of the vitamin-E isomers for 24 and 48 hrs. After the treatment, 20 μl of MTT solution was added into each well and the cells were incubated at 37° C. for 2 hrs. The formazan crystals were then re-suspended in 200 μl of DMSO and the intensity at 595 nm were measured. For JNK inhibitor study, cells were pre-treated with 20 μM of SP600125 for 8 hrs prior to the addition of vitamin-E isomers. For time course study, 5×10^3 cells (LNCaP and PC3) were treated with IC50 concentrations of the vitamin-E isomers and were subjected to MTT assay at the indicated time point. […] After 24 hrs, cells were subjected to western blotting and MTT assays respectively.

Experiment [3] concerns prostate intraepithelial neoplasia (PIN). The experiment in a line: Prevention of prostate intraepithelial neoplasia (PIN) in prostate cancer mouse models. The following applies: fed mice, FIG. 8. The class given is in vivo. The procedure:
For experiments, 5-week old prostate cancer mouse models previously published (Gabril, M. Y., Duan, W., et al., Molecular Therapy (2005), vol. 11, no. 3, p. 348; Greenberg et al., Proc Natl Acad Sci USA (1995), vol. 92, pp. 3439-3443; Duan, W., Gabril, M. Y., et al., Oncogene (2005) 24, 1510-1524; Wang S, Gao J, et al., Cancer Cell., 2003, vol. 4, no. 3, pp. 209-21; Gabril, M. Y., Onita, T., et al., Gene Ther., 2002, vol. 9, no. 23, pp. 1589-99) are used. All animal experiments were conducted according to standard protocols approved by Animal Care Committee. Genotyping was performed in PSP-TGMAP, and KIMAP mice were identified by a quick PCR genotyping protocol as previously reported (see above references referred to under item 6).
In one exemplary experiment, the animals are given 1 mg of gamma tocotrienol per day for 30 weeks via oral gavage. At the end of 10, 20 and 30 weeks, animals are sacrificed. The prostate along with the male accessory glands, i.e., the ventral and dorsolateral prostate lobes, seminal vesicles, and coagulation gland, were dissected out separately for histopathological characterization of prostate tumor development, prostate intraepithelial neoplasia (PIN) development and microinvasion. […]

Turning to `CC(=O)O[C@@]12CO[C@@H]1C[C@H](O)[C@@]1(C)C(=O)[C@H](O)C3=C(C)[C@@H](OC(=O)[C@H](O)[C@@H](NC(=O)OC(C)(C)C)c4ccccc4)C[C@@](O)([C@@H](OC(=O)c4ccccc4)[C@H]21)C3(C)C` [Docetaxel, (2R,3S)—N-carboxy-3-phenylisoserine, N-tert-butylester, 13-ester with 5,20-epoxy-1,2,4,7,10,13-hexahydroxytax-11-en-9-one-4-acetate-2-benzoate, trihydrate, reference compound], the “effect on prostasphere number” value in the experiment on DU145 prostaspheres was “failed to induce any observable effect on prostasphere number”. In the experiment on DU145, the IC90 dosage is 1.01 ng/mL.

With `COc1cccc(-c2cc(=O)c3ccccc3o2)c1N` [PD98059], in experiment [1], the “cancer cell viability after gamma-T3 treatment with MAPK inhibitor” value was “not able to restore cancer cell viability”.

Turning to `N#CC(=C(/N)Sc1ccccc1N)/C(C#N)=C(\N)Sc1ccccc1N` [U0126], the “cancer cell viability after gamma-T3 treatment with MAPK inhibitor” value in experiment [1] is “not able to restore cancer cell viability”.

As to `N#CCCN` [β-aminopropionitrile, reference compound], the “Id1 expression on co-treatment with gamma-T3” value in the experiment with MDA-MB-231 cells is on record as “almost completely restored the expression of Id1”.

For `Cc1c(O)cc2c(c1C)O[C@](C)(CCC[C@H](C)CCC[C@H](C)CCCC(C)C)CC2` [γ-T, 7,8-dimethyltocol, reference compound], in experiment [2] (data not shown), the “induction of apoptosis in LNCaP cells” value is given as “induce apoptosis in LNCaP cells at a dose similar to γ-T3”.

Turning to `CC(C)=CCC/C(C)=C/CC/C(C)=C/CC[C@]1(C)CCc2cc(O)cc(C)c2O1` [δ-T3, 8-methyltocotrienol], the “potency in suppressing cell growth in LNCaP” value in experiment [2] (compared with the other isomers) was “more potent”. Further, the “development of prostate intraepithelial neoplasia (PIN)” value in experiment [3] is recorded as “did not develop PIN”.

Source of the values: patent US20110195910A1, “USE OF TOCOTRIENOL COMPOSITION FOR THE PREVENTION OF CANCER” (DAVOS LIFE SCIENCE PTE. LTD., priority 2008, published 2011).
